18 compounds from patent US7326700B2, “Cyclohexenyl phenyl carboxamides tocolytic oxytocin receptor antagonists” (Wyeth, priority 2001, dated 2008) can be followed below.

Structures are written as SMILES. Where a name gives a salt, the structure may show the parent alone.

The target of the first assay is T1, human vasopressin V1a receptor subtype (Homo sapiens, UniProt P37288).
T1 construct: host or cells: CHO cells, stably transfected (pZeoSV vector for the Thibonnier line)
T1 sequence (P37288 whole entry): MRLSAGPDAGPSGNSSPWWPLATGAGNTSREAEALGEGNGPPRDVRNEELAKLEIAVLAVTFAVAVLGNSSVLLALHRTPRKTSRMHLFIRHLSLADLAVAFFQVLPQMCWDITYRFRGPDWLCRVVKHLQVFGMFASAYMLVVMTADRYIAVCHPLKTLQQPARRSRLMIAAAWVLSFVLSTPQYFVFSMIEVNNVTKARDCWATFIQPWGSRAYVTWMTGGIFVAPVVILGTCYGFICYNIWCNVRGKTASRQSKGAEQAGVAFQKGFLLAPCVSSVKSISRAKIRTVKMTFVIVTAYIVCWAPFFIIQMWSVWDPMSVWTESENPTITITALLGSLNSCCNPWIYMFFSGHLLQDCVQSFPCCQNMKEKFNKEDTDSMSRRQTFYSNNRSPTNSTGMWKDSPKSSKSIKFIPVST
Kind of assay: Vasopressin binding in CHO cell membranes expressing human vasopressin V1a subtype receptors ([3H]Manning ligand radioligand binding). The settings on record: 100 nM. An excerpt:
Chinese hamster ovary cells (CHO cells) stably transfected with the human vasopressin V1a subtype receptors were either obtained from Biosignal Inc., 1744 rue Williams, Montreal, Quebec, Canada or obtained from M. Thibonnier, Case Western Reserve University School of Medicine, Cleveland, Ohio.
CHO cells transfected with the human vasopressin V1a subtype receptors obtained from M. Thibonnier (pZeoSV vector) are allowed to grow to confluency (approx. >90%) in T-150 flasks under sterile conditions, in a cell culture medium consisting of F-12 Nutrient Mixture (HAM) with L-glutamine (Gibco Cat. #11765-054) containing 15 mM HEPES (Gibco Cat. #15630-080), 1% antibiotic/antimycotic (add 5 mL 100×, Gibco Cat. #15240-062 per 500 mL F-12), 250 μg/mL Zeocin (add 1.25 mL of 100 mg/mL Invitrogen R-250-01 per 500 mL F-12) and 10% Fetal Bovine Serum (Qualified, heat inactivated, Gibco Cat. #16140-063). The medium is removed by aspiration and the cells are washed with 10 mL of Hank's Balanced Salt solution (Gibco Cat. #14175-095). The salt solution is removed by aspiration and the cells are trypsinized with 5 mL of trypsin-EDTA (0.05% trypsin, 0.53 mM EDTA-4Na, Gibco Cat. #25300-070) for 1 min. The trypsin is removed by aspiration and the cells dislodged by tapping. Cell Culture medium (eg, 30 mL for 1:30 split) is immediately added and mixed well to inactivate trypsin. 1 mL of detached cells is added to new culture flasks containing fresh cell culture medium (eg, into 25 mL per T-150 flask), and mixed gently. The cells are incubated at 37° C. in 5% CO2. The medium is changed at 3 to 4 days interval (or as appropriate). The cells grow to confluency (approx. >75%-95%) within 7-8 days. All steps are done under sterile conditions.
The cells are washed twice gently with Hank's Balanced Salt solution (e.g,. use 10 mL per T-150 flask). The excess is removed and the cells are bathed for 15-30 min. in an enzyme-free Cell Dissociation Buffer (e.g. use 8 mL Hank's Based, Gibco Cat. #13150-016 per T-150 flask) until the cells are loosened. The contents are transferred to centrifuge tubes (50 mL) kept in an ice bath. All subsequent steps are done at 4° C. The tubes are centrifuged at 300×g for 15 min (1380 rpm on SORVAL, Model RT6000D, using the rotor for 50 mL tubes). The supernatant is discarded and the cells suspended in homogeneizing buffer (10 mM Tris-HCl containing 0.25 M sucrose and 1 mM EDTA, pH 7.4) ensuring that the volume of the buffer is about ten times the volume of the cell pellet. The cells are pooled into a centrifuge tube (50 mL) and homogenized with Polytron at setting 6 for 10 sec. The homogenate is transferred into a Potter-Elvjehm homogenizer and homogenized with 3 strokes. The homogenate is centrifuged at 1500×g for 10 min at 4° C. (3100 rpm using SORVAL, model RT6000D, using the rotor for 50 mL tubes). The pellet is discarded. The supernatant is centrifuged at 100,000×g for 60 min. at 4° C. (Beckman L8-80M ultracentrifuge; spin at 37,500 rpm with rotor type 70 Ti for 50 mL tubes; 38,000 rpm with type 80Ti for 15 mL tubes; or 35,800 rpm with rotor type 45Ti). The supernantant is discarded and the pellet suspended in 3 to 4 mL of Tris buffer (50 mM TRIS-HCl, pH 7.4). The protein content is estimated by the Bradford or Lowry method. The volume of the membrane suspension is adjusted with the membrane buffer (50 mM Tris-HCl containing 0.1% BSA and 0.1 mM PMSF) to give 3.0 mg/mL (or as appropriate) of protein. The membranes are aliquoted and stored at −70° C.
In wells of a 96-well format microtiter plate, is added 90, 110 or 130 μL (to make up a final volume of 200 μL) of assay buffer containing 50 mM of Tris-HCl (pH 7.4), BSA (heat inactivated, protease-free), […], 1 mg % aprotinin, 1 mg % leupeptin, 2 mg % 1,10-phenanthroline, 10 mg % trypsin inhibitor, and 0.1 mM PMSF. The inhibitors are added on the day of the experiment. […]
As to `Cc1cc(C(=O)N2Cc3ccc(C(=O)N4CCN(CCN(C)C)CC4)n3Cc3ccccc32)ccc1C1=CCCCC1` [Example 22, {10-[4-(1-Cyclohex-1-en-1-yl)-3-methylbenzoyl]-10,11-dihydro-5H-pyrrolo[2,1-c][1,4]benzodiazepin-3-yl}{4-[2-(dimethylamino)ethyl]-1-piperazinyl}methanone], the “V1a % inhibition @ 100 nM” value amounted to 34%.

On to `Cc1cc(C(=O)N2Cc3ccc(C(=O)NCCCn4ccnc4)n3Cc3ccccc32)ccc1C1=CCCCC1` [Example 18, 10-[4-(1-Cyclohex-1-en-1-yl)-3-methylbenzoyl]-N-[3-(1H-imidazol-1-yl)propyl]10,11-dihydro-5H-pyrrolo[2,1-c][1,4]benzodiazepine-3-carboxamide], for which the “V1a % inhibition @ 100 nM” value worked out at 7%. Turning to `Cc1cc(C(=O)N2Cc3ccc(C(=O)N4CCC[C@H]4CN4CCCC4)n3Cc3ccccc32)ccc1C1=CCCCC1` [Example 26, {10-[4-(1-Cyclohex-1-en-1-yl)-3-methylbenzoyl]-10,11-dihydro-5H-pyrrolo[2,1-c][1,4]benzodiazepin-3-yl}[(2S)-2-(1-pyrrolidinylmethyl)pyrrolidinyl]methanone], the “V1a % inhibition @ 100 nM” value turned out to be 38%.

In the case of `Cc1cc(C(=O)N2Cc3ccc(C(=O)N4CCC(N5CCCC5)CC4)n3Cc3ccccc32)ccc1C1=CCCCC1` [Example 19, {10-[4-(1-Cyclohex-1-en-1-yl)-3-methylbenzoyl]-10,11-dihydro-5H-pyrrolo[2,1c][1,4]benzodiazepin-3-yl}[4-(1-pyrrolidinyl)-1-piperidinyl]methanone], the “V1a % inhibition @ 100 nM” value is listed as 33%. As to `C=CCN1CCN(C(=O)c2ccc3n2Cc2ccccc2N(C(=O)c2ccc(C4=CCCCC4)c(C)c2)C3)CC1` [Example 24, (4-Allyl-1-piperazinyl){10-[4-(1-cyclohex-1-en-1-yl)-3-methylbenzoyl]-10,11-dihydro-5H-pyrrolo[2,1-c][1,4]benzodiazepin-3-yl}methanone], the “V1a % inhibition @ 100 nM” value was found to be 12%. The same measure, in the same setting: the same measure for `Cc1cc(C(=O)N2Cc3ccc(C(=O)N4CC[C@@H](N(C)C)C4)n3Cc3ccccc32)ccc1C1=CCCCC1` [Example 27, {10-[4-(1-Cyclohex-1-en-1-yl)-3-methylbenzoyl]-10,11-dihydro-5H-pyrrolo[2,1-c][1,4]benzodiazepin-3-yl}[(3R)-3-(dimethylamino)pyrrolidinyl]methanone]: 62%; for `Cc1cc(C(=O)N2Cc3ccc(C(=O)N(C)CCCN(C)C)n3Cc3ccccc32)ccc1C1=CCCCC1` [Example 16, 10-[4-(1-Cyclohex-1-en-1-yl)-3-methylbenzoyl]-N-[3-(dimethylamino)propyl]-N-methyl-10,11-dihydro-5H-pyrrolo[2,1-c][1 ,4]benzodiazepine-3-carboxamide]: 55%. With `Cc1cc(C(=O)N2Cc3ccc(C(=O)NCCC4CCCN4C)n3Cc3ccccc32)ccc1C1=CCCCC1` (stereo not drawn) [Example 21, 10-[4-(1-Cyclohex-1-en-1-yl)-3-methylbenzoyl]-N-[2-(1-methyl-2-pyrrolidinyl)ethyl]-10,11-dihydro-5H-pyrrolo[2,1-c][1,4]benzodiazepine-3-carboxamide], the “V1a % inhibition @ 100 nM” value came out at 28%. The term inhibition denotes how much of the control response was suppressed. A higher inhibition goes with strong suppression. The compound `CC1=C(c2ccc(C(=O)N3Cc4ccc(C(=O)N5CCN(C)CC5)n4Cc4ccccc43)cc2C)CCCC1O` (stereo not drawn) [Example 10, [4-(3-Hydroxy-2-methyl-cyclohex-1-en-1-yl)-3-methyl-phenyl]-[3-(4-methyl-piperazine-1carbonyl)-10,11-dihydro-5H-pyrrolo[2,1-c][1,4]benzodiazepin-10-yl]-methanone] had an inhibition at 0.1 µM of 52%. The same measure, in the same setting: the same measure for `Cc1cc(C(=O)N2Cc3ccc(C(=O)N4CCN(CCCN(C)C)CC4)n3Cc3ccccc32)ccc1C1=CCCCC1` [Example 5, [10-(4-Cyclohex-1-en-1-yl-3-methyl-benzoyl)-10,11-dihydro-5H-pyrrolo[2,1-c][1,4]benzodiazepin-3-yl]-[4-(3-dimethylamino-propyl)-piperazin-1-yl]-methanone]: 56%.

Consider `Cc1cc(C(=O)N2Cc3ccc(C(=O)N4CCN(CCN5CCOCC5)CC4)n3Cc3ccccc32)ccc1C1=CCCCC1` [Example 23, {10-[4-(1-Cyclohex-1-en-1-yl)-3-methylbenzoyl]-10,11-dihydro-5H-pyrrolo[2,1-c][1,4]benzodiazepin-3-yl}{4-[2-(4-morpholinyl)ethyl]-1-piperazinyl}methanone], for which the “V1a % inhibition @ 100 nM” value was 27%. Compound `Cc1cc(C(=O)N2Cc3ccc(C(=O)N4CCN(C)CC4)n3Cc3ccccc32)ccc1C1=CCCCC1` [Example 4, [10-(4-Cyclohex-1-en-1-yl-3-methyl-benzoyl)-10,11-dihydro-5H-pyrrolo[2,1-c][1,4]benzodiazepin-3-yl]-(4-methyl-piperazin-1-yl)-methanone] yielded an inhibition at 0.1 µM of 26%. The same measure, in the same setting: the same measure for `COc1cc(C2=CCCCC2)c(Cl)cc1C(=O)N1Cc2ccc(C(=O)N(C)CCCN(C)C)n2Cc2ccccc21` [Example 2, 10-(5-Chloro-4-cyclohex-1-en-1-yl-2-methoxybenzoyl)-N-[3-(dimethylamino)propyl]-N-methyl-10,11-dihydro-5H-pyrrolo[2,1-c][1,4]benzodiazepine-3-carboxamide]: 19%. Take `Cc1cc(C(=O)N2Cc3ccc(C(=O)N4CCN(C(C)C)CC4)n3Cc3ccccc32)ccc1C1=CCCCC1` [Example 25, {10-[4-(1-Cyclohex-1-en-1-yl)-3-methylbenzoyl]-1 0,11-dihydro-5H-pyrrolo[2,1-c][1,4]benzodiazepin-3-yl}(4-isopropyl-1-piperazinyl)methanone]: the “V1a % inhibition @ 100 nM” value was found to be 24%. In the case of `Cc1cc(C(=O)N2Cc3ccc(C(=O)N4CCC(N5CCCCC5)CC4)n3Cc3ccccc32)ccc1C1=CCCCC1` [Example 17, {10-[4-(1-Cyclohex-1-en-1-yl)-3-methylbenzoyl]-10,11-dihydro-5H-pyrrolo[2,1-c][1,4]benzodiazepin-3-yl}[4-(1-piperidinyl)-1-piperidinyl]methanone], the “V1a % inhibition @ 100 nM” value is 30%. `CC1=C(c2ccc(C(=O)N3Cc4ccc(C(=O)N5CCN(C)CC5)n4Cc4ccccc43)cc2C)CCC[C@H]1O` [Example 11, [4-((3R)-3-Hydroxy-2-methyl-cyclohex-1-en-1-yl)-3-methyl-phenyl]-[3-(4-methyl-piperazine-1-carbonyl)-10,11-dihydro-5H-pyrrolo [2,1-c][1,4]benzodiazepin-10-yl]-methanone] came in with an inhibition at 0.1 µM of 26%.

The assay is the same for the next values; noted with them: value in parentheses.
The IC50 is the midpoint of a concentration-inhibition curve. `COc1cc(C2=CCCCC2)c(Cl)cc1C(=O)N1Cc2ccc(C(=O)N(C)CCCN(C)C)n2Cc2ccccc21` [Example 3, 10-(5-Chloro-4-cyclohex-1-en-1-yl-2-methoxybenzoyl)-N-[3-(dimethylamino)propyl]-N-methyl-10,11-dihydro-5H-pyrrolo[2,1-c][1,4]benzodiazepine-3-carboxamide citric acid salt]: the IC50 worked out at 977 nM.

Consider `COc1cc(C2=CCCCC2)c(Cl)cc1C(=O)N1Cc2ccc(C(=O)N3CCC[C@H]3CN3CCCC3)n2Cc2ccccc21` [Example 1, 4-Chloro-5-cyclohex-1-en-1-yl-2-[(3-{[(2S)-2-(pyrrolidin-1-ylmethyl)pyrrolidin-1-yl]carbonyl}-5H-pyrrolo [2,1-c][1,4]benzodiazepin-10(11H)-yl)carbonyl]phenyl methyl ether], for which the IC50 was 1280 nM.
